This is an account of results in PubChem BioAssay (NCI).

Common to all, as to experiment: NCI-60 cell line screen, 48 h
Experiment [1] relates to CAKI-1 renal.
The subject of experiment [2] is UO-31 renal.
Experiment [3] has as its system SW-620 colon.
Experiment [4] has as its system MCF7 breast.
Experiment [5] has as its system NCI-H460 lung.
Experiment [6] deals with A549 NSCLC.
In experiment [7] the test system is MDA-N.
The subject of experiment [8] is EKVX NSCLC.
Experiment [9] relates to K-562 leukemia.
Experiment [10] has as its system LOX IMVI melanoma.
In experiment [11] the test system is HL-60(TB) leukemia.
Experiment [12] has as its system MALME-3M melanoma.
Experiment [13] relates to RPMI-8226 leukemia.
In experiment [14] the test system is BT-549 breast.

Each structure is given as a SMILES string.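 Protocol summary: plate cells (96-well), add compound at 5 concentrations, incubate 48 h, interpolate endpoints linearly. TGI denotes the concentration required for complete inhibition of growth.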 Where a SMILES comes first, the peptide text is derived from it. The star is where a group is joined. Cbz = O=C(OCc1ccccc1)*

Regarding `CC(=O)OCC1OC(n2c(C)c(C(C)=O)c(-c3cccc4ccccc34)c(C#N)c2=S)C(OC(C)=O)C(OC(C)=O)C1OC(C)=O` (stereo unspecified), the TGI in [1] is greater than 100 µM; in experiment [2] it was 0.249 µM; in [3], greater than 100 µM; in experiment [4], greater than 100 µM; in [5] it was greater than 100 µM; in experiment [6], greater than 100 µM. In addition, the TGI in [7], in experiment [8], in [9], in experiment [10], in experiment [11] and in experiment [12] was greater than 100 µM in each case.

On to `CCOC(=O)C(=CNC(=S)Nc1c(CC)cccc1CC)C(=O)OCC`, for which the TGI in [1], in experiment [2], in [3], in [4], in experiment [5] and in [6] was greater than 100 µM throughout. Also, the TGI in experiment [7], in [13], in experiment [8], in experiment [9], in experiment [10] and in [11] was greater than 100 µM throughout. In experiment [12], this compound registered a TGI greater than 100 µM.

Regarding `CCN(CC)CCC(=O)c1ccc(Oc2ccccc2)cc1`, the TGI in experiment [1] was 30.7 µM; in experiment [14], 33.5 µM; in experiment [3], 31.3 µM; in experiment [4], 38.5 µM; in [6] it was greater than 100 µM; in experiment [7], 30.1 µM. Further, the TGI is 39.2 µM in experiment [13]; 41.4 µM in [8]; greater than 100 µM in [9]; 31.3 µM in [10]; 30.1 µM in experiment [12].

For `Nc1cccc(C#Cc2cccc(C#Cc3cccc(N)n3)n2)n1`, the TGI in experiment [1], in experiment [14], in experiment [2], in experiment [3], in experiment [4] and in experiment [5] was greater than 100 µM in each case. The TGI in [7], in [13], in [8], in experiment [9] and in experiment [10] was greater than 100 µM each time.

For `CCOC(=O)C(CC(=O)OC)NC(=O)C(CC(=O)OC)NC(=O)C(CC(=O)OC)NC(=O)C(CC(=O)OC)NC(=O)OCc1ccccc1` (stereo unspecified) (Cbz-D(OMe)D(OMe)D(OMe)D(OMe)-OEt; configuration not given here), the TGI in experiment [14], in experiment [2], in experiment [3], in experiment [4], in experiment [5] and in experiment [6] was greater than 100 µM throughout. The TGI in experiment [7], in experiment [13], in [8], in experiment [9], in [11] and in experiment [12] was greater than 100 µM each time.

In the case of `O=C(NCCN1CCCC1)c1cn2c(ccc3sc4ccccc4c(=O)c32)n1`, the TGI in [1] came to 24.2 µM; in [14], 35.6 µM; in experiment [2], 26.4 µM; in experiment [3], 3.32 µM; in experiment [5], 18.6 µM; in experiment [6], 24.5 µM. Also, the TGI was 33.1 µM in experiment [7]; 5.7 µM in [13]; 34.8 µM in [8]; 3.4 µM in experiment [10]; 26.8 µM in experiment [11]; 31.8 µM in experiment [12].

Consider `COC(=O)CC1(O)C(/C=C/c2ccccc2)C(C(=O)OC)C(=O)C(C(=O)OC)C1C(=O)OC` (stereo unspecified), for which the TGI in experiment [1], in experiment [2], in experiment [3], in experiment [4], in [5] and in [6] was greater than 100 µM each time. In addition, the TGI in experiment [7], in [13], in experiment [8], in [9], in experiment [10] and in experiment [11] was greater than 100 µM each time. In experiment [12], the TGI was greater than 100 µM.

Regarding `CC(C)c1nc2c(Cl)c3ncccc3cc2[nH]c1=O`, the TGI in [1], in [14], in experiment [2], in experiment [3], in experiment [4] and in experiment [5] was greater than 100 µM in each case. Further, the TGI in [6], in experiment [7], in experiment [13], in experiment [8], in experiment [9] and in experiment [11] was greater than 100 µM in each case. Further, in experiment [12], the TGI was greater than 100 µM.

As to `CC(C)c1ccc2[nH]c(O)c(C3=Nc4ccccc4C3=O)c2c1`, the TGI in experiment [1] is greater than 100 µM; in experiment [14], 69.6 µM; in experiment [2], greater than 100 µM; in [3] it was greater than 100 µM; in [4] it was 1.3 µM; in experiment [5], greater than 100 µM. The TGI is greater than 100 µM in experiment [6]; greater than 100 µM in experiment [7]; greater than 100 µM in experiment [13]; 42.8 µM in experiment [8]; greater than 100 µM in experiment [9]; greater than 100 µM in experiment [10]. In experiment [12], this compound displayed a TGI greater than 100 µM.

Turning to `Cc1csc2nc3[nH]ncc3c(=O)n12`, the TGI in experiment [1], in [14], in experiment [2], in experiment [3], in [4] and in [5] was greater than 100 µM throughout. The TGI in experiment [6], in experiment [7], in experiment [13], in experiment [8], in experiment [9] and in [10] was greater than 100 µM each time. In addition, the TGI in experiment [12] is greater than 100 µM.

For the compound `CO/N=C(/C(=O)OC)c1ccccc1COc1cccc(C(F)(F)F)c1`, the TGI in experiment [1] is 56.1 µM; in [2] it was greater than 100 µM; in experiment [3], greater than 100 µM; in experiment [4] it was 85.1 µM; in experiment [5], greater than 100 µM; in experiment [6], greater than 100 µM. The TGI was greater than 100 µM in experiment [7]; 25.4 µM in experiment [13]; 43.2 µM in [8]; greater than 100 µM in experiment [9]; greater than 100 µM in [10]; 49 µM in experiment [11]. The TGI in [12] was 46.1 µM.
